From PubChem BioAssay AID1918935 (Molecular Pharmacology Branch, DTP, NCI, 2023)
pIC50: −log10 of the molar value. Where “and” joins values, the source holds several entries; their conditions need not be identical. Identical values can stand only once. One block for each compound: values may come before it.

System: 324938-238-R-J1-PDC complex spheroid viability
Assay: Anticancer human tumor 324938-238-R-J1-PDC patient-derived bladder carcinoma cell line growth inhibition
Conditions: for viability, T/C: stronger effect = lower value
Procedure, shortened: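 Drug combinations with the LSD1 inhibitor iadademstat tested on tumor cells co-cultured as spheroids with endothelial cells and mesenchymal stem cells. Concentrations descended in half-log increments from clinical Cmax or 10 microM.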

[1] = curve of first compound, second compound 0.1 µM
[2] = curve of first compound, second compound 0.316 µM
[3] = curve of first compound, second compound 1 µM
[4] = curve of first compound, second compound 3.16 µM
[5] = curve of first compound, second compound 10 µM
[6] = second compound 0.1 µM, first compound 0.0316 µM
[7] = second compound 0.1 µM, first compound 0.1 µM
[8] = second compound 0.316 µM, first compound 0.0316 µM
[9] = second compound 0.316 µM, first compound 0.1 µM
[10] = second compound 1 µM, first compound 0.0316 µM
[11] = second compound 1 µM, first compound 0.1 µM
[12] = second compound 3.16 µM, first compound 0.0316 µM
[13] = second compound 3.16 µM, first compound 0.1 µM
[14] = second compound 10 µM, first compound 0.0316 µM
[15] = second compound 10 µM, first compound 0.1 µM
[16] = second compound 0.1 µM, first compound 0.316 µM
[17] = second compound 0.1 µM, first compound 1 µM
[18] = second compound 0.1 µM, first compound 3.16 µM
[19] = second compound 0.1 µM, first compound 10 µM
[20] = second compound 0.316 µM, first compound 0.316 µM
[21] = second compound 0.316 µM, first compound 1 µM
[22] = second compound 0.316 µM, first compound 3.16 µM
[23] = second compound 0.316 µM, first compound 10 µM
[24] = second compound 1 µM, first compound 0.316 µM
[25] = second compound 1 µM, first compound 1 µM
[26] = second compound 1 µM, first compound 3.16 µM
[27] = second compound 1 µM, first compound 10 µM
[28] = second compound 3.16 µM, first compound 0.316 µM
[29] = second compound 3.16 µM, first compound 1 µM
[30] = second compound 3.16 µM, first compound 3.16 µM
[31] = second compound 3.16 µM, first compound 10 µM
[32] = second compound 10 µM, first compound 0.316 µM
[33] = second compound 10 µM, first compound 1 µM
[34] = second compound 10 µM, first compound 3.16 µM
[35] = second compound 10 µM, first compound 10 µM
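Note: spheroids also contain HUVEC and human MSCs and agents combined with iadademstat; spheroids exposed to agents for 7 days before readout.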

Structure (SMILES): Cn1ncnc1C1c2n[nH]c(=O)c3cc(F)cc(c23)NC1c1ccc(F)cc1 (centres undefined) + NC1CCC(NC2CC2c2ccccc2)CC1
pIC50 [1]: < 7.00 | pIC50 [2]: < 7.00 | pIC50 [3]: < 7.00 | pIC50 [4]: 7.10 | pIC50 [5]: 7.13 | viability, T/C (second compound 0.1 µM, first compound 0.000316 µM): 75.7% | viability, T/C (second compound 0.1 µM, first compound 0.001 µM): 81.6% | viability, T/C (second compound 0.1 µM, first compound 0.00316 µM): 66.8% | viability, T/C (second compound 0.1 µM, first compound 0.01 µM): 64.1% | viability, T/C [6]: 63.1% | viability, T/C [7]: 50.8% | viability, T/C (second compound 0.316 µM, first compound 0.000316 µM): 95% | viability, T/C (second compound 0.316 µM, first compound 0.001 µM): 86.9% | viability, T/C (second compound 0.316 µM, first compound 0.00316 µM): 73.8% | viability, T/C (second compound 0.316 µM, first compound 0.01 µM): 66.3% | viability, T/C [8]: 65.4% | viability, T/C [9]: 55.8% | viability, T/C (second compound 1 µM, first compound 0.000316 µM): 70.3% | viability, T/C (second compound 1 µM, first compound 0.001 µM): 71.1% | viability, T/C (second compound 1 µM, first compound 0.00316 µM): 77.2% | viability, T/C (second compound 1 µM, first compound 0.01 µM): 73% | viability, T/C [10]: 59.8% | viability, T/C [11]: 52.6% | viability, T/C (second compound 3.16 µM, first compound 0.000316 µM): 68.1% | viability, T/C (second compound 3.16 µM, first compound 0.001 µM): 77.6% | viability, T/C (second compound 3.16 µM, first compound 0.00316 µM): 74.7% | viability, T/C (second compound 3.16 µM, first compound 0.01 µM): 66.8% | viability, T/C [12]: 58.4% | viability, T/C [13]: 48.1% | viability, T/C (second compound 10 µM, first compound 0.000316 µM): 66.2% | viability, T/C (second compound 10 µM, first compound 0.001 µM): 72.7% | viability, T/C (second compound 10 µM, first compound 0.00316 µM): 71.8% | viability, T/C (second compound 10 µM, first compound 0.01 µM): 65% | viability, T/C [14]: 54.7% | viability, T/C [15]: 48.3%

pIC50 (curve of compound): 5.17 and 5.25
Structure (SMILES): CC1(C)CCC(CN2CCN(c3ccc(C(=O)NS(=O)(=O)c4ccc(NCC5CCOCC5)c([N+](=O)[O-])c4)c(Oc4cnc5[nH]ccc5c4)c3)CC2)=C(c2ccc(Cl)cc2)C1
viability, T/C (compound 0.0316 µM): 99% and 104% | viability, T/C (compound 0.1 µM): 102% and 108% | viability, T/C (compound 0.316 µM): 107% and 109% | viability, T/C (compound 1 µM): 103% and 90.5% | viability, T/C (compound 3.16 µM): 90.8% and 83% | viability, T/C (compound 10 µM): 28.4% and 20.4%

Structure (SMILES): COc1ccc([C@@H](O)c2cc(-c3ncnc4cc(N5CCOCC5)ccc34)c(F)cc2Cl)nn1 + NC1CC1c1ccc(-c2cccc(O)c2)cc1
pIC50 [1]: 5.84 | pIC50 [2]: 6.32 | pIC50 [3]: 6.39 | pIC50 [4]: 6.50 | pIC50 [5]: 6.36 | viability, T/C [6]: 82.3% | viability, T/C [7]: 77.6% | viability, T/C [16]: 65.2% | viability, T/C [17]: 54% | viability, T/C [18]: 41.5% | viability, T/C [19]: 25.7% | viability, T/C [8]: 71.3% | viability, T/C [9]: 61.8% | viability, T/C [20]: 52% | viability, T/C [21]: 45.7% | viability, T/C [22]: 34.9% | viability, T/C [23]: 25% | viability, T/C [10]: 63.6% | viability, T/C [11]: 60.5% | viability, T/C [24]: 49.6% | viability, T/C [25]: 43.2% | viability, T/C [26]: 37.5% | viability, T/C [27]: 23.4% | viability, T/C [12]: 62.6% | viability, T/C [13]: 59.4% | viability, T/C [28]: 49.4% | viability, T/C [29]: 39.7% | viability, T/C [30]: 35.3% | viability, T/C [31]: 25.6% | viability, T/C [14]: 64.2% | viability, T/C [15]: 60.2% | viability, T/C [32]: 55.6% | viability, T/C [33]: 38.5% | viability, T/C [34]: 32.7% | viability, T/C [35]: 21.8%

Structure (SMILES): Nc1ccccc1NC(=O)c1ccc(CNC(=O)OCc2cccnc2)cc1 + NC1CC1c1ccc(-c2cccc(O)c2)cc1
pIC50 [1]: 6.30 | pIC50 [2]: 6.36 | pIC50 [3]: 6.31 | pIC50 [4]: 6.31 | pIC50 [5]: 6.40 | viability, T/C (second compound 0.1 µM, first compound 0.00949 µM): 86.6% | viability, T/C (second compound 0.1 µM, first compound 0.03 µM): 87.6% | viability, T/C (second compound 0.1 µM, first compound 0.0949 µM): 70.2% | viability, T/C (second compound 0.1 µM, first compound 0.3 µM): 62.6% | viability, T/C (second compound 0.1 µM, first compound 0.949 µM): 36.7% | viability, T/C (second compound 0.1 µM, first compound 3 µM): 7.26% | viability, T/C (second compound 0.316 µM, first compound 0.00949 µM): 83.8% | viability, T/C (second compound 0.316 µM, first compound 0.03 µM): 80.1% | viability, T/C (second compound 0.316 µM, first compound 0.0949 µM): 71.7% | viability, T/C (second compound 0.316 µM, first compound 0.3 µM): 56.1% | viability, T/C (second compound 0.316 µM, first compound 0.949 µM): 35.9% | viability, T/C (second compound 0.316 µM, first compound 3 µM): 5.68% | viability, T/C (second compound 1 µM, first compound 0.00949 µM): 67.2% | viability, T/C (second compound 1 µM, first compound 0.03 µM): 76% | viability, T/C (second compound 1 µM, first compound 0.0949 µM): 66.7% | viability, T/C (second compound 1 µM, first compound 0.3 µM): 56.3% | viability, T/C (second compound 1 µM, first compound 0.949 µM): 39.5% | viability, T/C (second compound 1 µM, first compound 3 µM): 3.75% | viability, T/C (second compound 3.16 µM, first compound 0.00949 µM): 76.7% | viability, T/C (second compound 3.16 µM, first compound 0.03 µM): 67% | viability, T/C (second compound 3.16 µM, first compound 0.0949 µM): 70.4% | viability, T/C (second compound 3.16 µM, first compound 0.3 µM): 59.2% | viability, T/C (second compound 3.16 µM, first compound 0.949 µM): 37.6% | viability, T/C (second compound 3.16 µM, first compound 3 µM): 5.73% | viability, T/C (second compound 10 µM, first compound 0.00949 µM): 63.2% | viability, T/C (second compound 10 µM, first compound 0.03 µM): 66.1% | viability, T/C (second compound 10 µM, first compound 0.0949 µM): 68.2% | viability, T/C (second compound 10 µM, first compound 0.3 µM): 51.2% | viability, T/C (second compound 10 µM, first compound 0.949 µM): 36.4% | viability, T/C (second compound 10 µM, first compound 3 µM): 6.9%

pIC50 (curve of compound): > 9.02
Structure (SMILES): Nc1ccn(C2OC(CO)C(O)C2(F)F)c(=O)n1 (centres undefined)
viability, T/C (compound 0.000949 µM): 11.4% and 15.4% | viability, T/C (compound 0.003 µM): 8.21% and 9.09% | viability, T/C (compound 0.00949 µM): 7.58% and 8.65% | viability, T/C (compound 0.03 µM): 6.97% and 8.11% | viability, T/C (compound 0.0949 µM): 5.95% and 6.14% | viability, T/C (compound 0.3 µM): 5.04% and 6.97%

Structure (SMILES): O=C(c1cc(Cc2n[nH]c(=O)c3ccccc23)ccc1F)N1CCN(C(=O)C2CC2)CC1 + NC1CCC(NC2CC2c2ccccc2)CC1
pIC50 [1]: 5.54 | pIC50 [2]: 5.56 | pIC50 [3]: 5.40 | pIC50 [4]: 5.57 | pIC50 [5]: 5.61 | viability, T/C [6]: 80.8% | viability, T/C [7]: 80.9% | viability, T/C [16]: 86.4% | viability, T/C [17]: 68.1% | viability, T/C [18]: 49.9% | viability, T/C [19]: 41.5% | viability, T/C [8]: 78.7% | viability, T/C [9]: 82.7% | viability, T/C [20]: 83.7% | viability, T/C [21]: 64.4% | viability, T/C [22]: 49.8% | viability, T/C [23]: 36.5% | viability, T/C [10]: 77.7% | viability, T/C [11]: 71.3% | viability, T/C [24]: 80% | viability, T/C [25]: 69.3% | viability, T/C [26]: 53.3% | viability, T/C [27]: 37.9% | viability, T/C [12]: 73.2% | viability, T/C [13]: 74.1% | viability, T/C [28]: 73.2% | viability, T/C [29]: 71% | viability, T/C [30]: 46.9% | viability, T/C [31]: 39.6% | viability, T/C [14]: 70.6% | viability, T/C [15]: 65.8% | viability, T/C [32]: 77% | viability, T/C [33]: 59.3% | viability, T/C [34]: 49.9% | viability, T/C [35]: 45.1%
